Columns and labels:
Test in all cases: IA-DTB cysteine engagement
Format in all cases: binding
Settings in all cases: 22Rv1 cells, 20 μM probe, 1 h, relative to DMSO
BLOC1S2_C41 = biological target: T1, BLOC1S2_C41 (Homo sapiens, UniProt Q6QNY1)
T1 construct: endogenous in cells; host or cells: 22Rv1
T1 sequence (Q6QNY1 1-142): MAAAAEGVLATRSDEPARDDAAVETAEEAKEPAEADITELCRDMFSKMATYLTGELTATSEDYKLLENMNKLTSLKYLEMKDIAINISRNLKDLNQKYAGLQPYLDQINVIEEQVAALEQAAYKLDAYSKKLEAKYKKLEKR
In short: (§1)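 Probe-exposed cells were lysed, IA-DTB-labeled, trypsinized and streptavidin-enriched. Multiplexed TMT quantitation gave engagement ratios versus DMSO, with non-tryptic peptides excluded and intensities normalized to median summed signal.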

NELFCD_C169 = biological target: T2, NELFCD_C169 (Homo sapiens, UniProt Q8IXH7)
T2 construct: endogenous in cells; host or cells: 22Rv1
In short: as §1

RAB39B_C23 = biological target: T3, RAB39B_C23 (Homo sapiens, UniProt Q96DA2)
T3 construct: endogenous in cells; host or cells: 22Rv1
T3 sequence (Q96DA2 1-213): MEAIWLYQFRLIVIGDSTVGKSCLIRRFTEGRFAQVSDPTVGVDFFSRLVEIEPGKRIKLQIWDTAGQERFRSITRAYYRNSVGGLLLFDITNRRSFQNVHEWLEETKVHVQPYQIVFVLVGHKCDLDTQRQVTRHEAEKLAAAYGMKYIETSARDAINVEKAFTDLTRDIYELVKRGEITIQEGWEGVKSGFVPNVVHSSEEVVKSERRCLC
In short: as §1

TOMM70_C214 = biological target: T4, TOMM70_C214 (Homo sapiens, UniProt O94826)
T4 construct: endogenous in cells; host or cells: 22Rv1
T4 sequence (O94826 1-608): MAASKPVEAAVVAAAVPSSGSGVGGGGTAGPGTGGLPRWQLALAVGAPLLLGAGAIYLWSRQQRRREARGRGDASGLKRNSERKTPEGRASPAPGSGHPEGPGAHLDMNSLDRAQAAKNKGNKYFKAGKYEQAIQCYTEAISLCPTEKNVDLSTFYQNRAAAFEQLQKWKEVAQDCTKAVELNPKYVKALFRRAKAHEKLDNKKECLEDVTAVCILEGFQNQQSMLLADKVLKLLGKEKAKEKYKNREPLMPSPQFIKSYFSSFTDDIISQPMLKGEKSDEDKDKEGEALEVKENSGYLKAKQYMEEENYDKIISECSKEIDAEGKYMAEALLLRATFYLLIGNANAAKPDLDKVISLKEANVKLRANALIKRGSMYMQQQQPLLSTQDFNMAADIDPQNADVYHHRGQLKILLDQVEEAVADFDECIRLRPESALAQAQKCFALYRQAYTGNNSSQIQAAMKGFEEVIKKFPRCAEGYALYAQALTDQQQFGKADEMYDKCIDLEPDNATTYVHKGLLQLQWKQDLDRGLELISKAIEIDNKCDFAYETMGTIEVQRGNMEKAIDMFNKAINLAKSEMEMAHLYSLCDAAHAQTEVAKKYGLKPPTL
In short: as §1

LAPTM4A_C23 = biological target: T5, LAPTM4A_C23 (Homo sapiens, UniProt Q15012)
T5 construct: endogenous in cells; host or cells: 22Rv1
In short: as §1

FABP5_C127 = biological target: T6, FABP5_C127 (Homo sapiens, UniProt Q01469)
T6 construct: endogenous in cells; host or cells: 22Rv1
In short: as §1

T2 sequence (Q8IXH7 whole entry): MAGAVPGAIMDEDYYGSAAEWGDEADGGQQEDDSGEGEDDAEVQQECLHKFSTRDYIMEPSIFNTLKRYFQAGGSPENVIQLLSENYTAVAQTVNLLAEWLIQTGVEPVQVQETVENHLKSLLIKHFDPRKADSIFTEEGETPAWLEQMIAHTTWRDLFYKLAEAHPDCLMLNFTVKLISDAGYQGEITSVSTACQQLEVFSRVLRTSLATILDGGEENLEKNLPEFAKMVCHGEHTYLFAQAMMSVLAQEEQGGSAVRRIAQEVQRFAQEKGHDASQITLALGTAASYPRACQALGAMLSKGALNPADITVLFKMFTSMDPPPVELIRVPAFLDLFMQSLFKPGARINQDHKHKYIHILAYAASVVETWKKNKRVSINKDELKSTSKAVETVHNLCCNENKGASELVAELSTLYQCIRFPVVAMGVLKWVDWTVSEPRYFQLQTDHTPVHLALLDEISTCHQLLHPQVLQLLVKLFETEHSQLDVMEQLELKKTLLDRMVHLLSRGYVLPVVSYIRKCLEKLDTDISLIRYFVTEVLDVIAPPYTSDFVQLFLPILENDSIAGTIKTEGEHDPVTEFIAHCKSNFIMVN
T6 sequence (Q01469 whole entry): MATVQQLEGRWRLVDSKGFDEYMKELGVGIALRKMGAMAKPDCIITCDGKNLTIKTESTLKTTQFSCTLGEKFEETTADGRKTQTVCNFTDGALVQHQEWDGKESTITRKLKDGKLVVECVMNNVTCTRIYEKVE

With C=CC(=O)N1C[C@H](c2ccc(Br)cc2)[C@H]1C(=O)Nc1cccc2cccnc12 [MY-3A, (2S,3S)-1-acryloyl-3-(4-bromophenyl)-N-(quinolin-8-yl)azetidine-2-carboxamide] the “% engagement BLOC1S2_C41” value (BLOC1S2_C41) was 3.5%, the “% engagement NELFCD_C169” value (NELFCD_C169) was 40.75% and the “% engagement RAB39B_C23” value (RAB39B_C23) was −53%. For the same compound, the “% engagement TOMM70_C214” value (TOMM70_C214) was 30.5%, the “% engagement LAPTM4A_C23” value (LAPTM4A_C23) was 48% and the “% engagement FABP5_C127” value (FABP5_C127) was −13%.

C=CC(=O)N1C[C@@H](c2ccc(Br)cc2)[C@H]1C(=O)Nc1cccc2cccnc12 [MY-1A, (2S,3R)-1-acryloyl-3-(4-bromophenyl)-N-(quinolin-8-yl)azetidine-2-carboxamide] was tested, and the “% engagement BLOC1S2_C41” value (BLOC1S2_C41) was 6%, the “% engagement NELFCD_C169” value (NELFCD_C169) was 51% and the “% engagement RAB39B_C23” value (RAB39B_C23) was 24.5%. The “% engagement TOMM70_C214” value (TOMM70_C214) was 7.5%, the “% engagement LAPTM4A_C23” value (LAPTM4A_C23) was 67% and the “% engagement FABP5_C127” value (FABP5_C127) was 0%.

C=CC(=O)N1C[C@H](c2ccc(Br)cc2)[C@@H]1C(=O)Nc1cccc2cccnc12 [MY-1B, (2R,3S)-1-acryloyl-3-(4-bromophenyl)-N-(quinolin-8-yl)azetidine-2-carboxamide] was tested, and the “% engagement BLOC1S2_C41” value (BLOC1S2_C41) was 70%, the “% engagement NELFCD_C169” value (NELFCD_C169) was 41.75% and the “% engagement RAB39B_C23” value (RAB39B_C23) was 18.5%. For the same compound, the “% engagement TOMM70_C214” value (TOMM70_C214) was 29%, the “% engagement LAPTM4A_C23” value (LAPTM4A_C23) was 54.5% and the “% engagement FABP5_C127” value (FABP5_C127) was 73%.

C=CC(=O)N1C[C@H](c2ccc(Br)cc2)[C@H]1C(=O)Nc1cccc2cccnc12 [MY-3B, (2S,3S)-1-acryloyl-3-(4-bromophenyl)-N-(quinolin-8-yl)azetidine-2-carboxamide] was tested, and the “% engagement BLOC1S2_C41” value (BLOC1S2_C41) was 66.5%, the “% engagement NELFCD_C169” value (NELFCD_C169) was 69.5% and the “% engagement RAB39B_C23” value (RAB39B_C23) was 67%. The “% engagement TOMM70_C214” value (TOMM70_C214) was 71.5%, the “% engagement LAPTM4A_C23” value (LAPTM4A_C23) was 72% and the “% engagement FABP5_C127” value (FABP5_C127) was −60.5%.
